Here are results for 4 compounds from US20040019088A1, “Use of Epothilones in the treatment of brain diseases associated with proliferative processes” (Schering AG, priority 2002, published 2004).

Where “and” joins values, the source holds several entries; their conditions need not be identical. Equal entries are not always repeated. Marks after values point to notes of the source that are not given here.

Data set [1] can be described thus: Mouse bolus injection assay (blood and brain levels of Epothilones). The following applies: for Brain plasma ratio: after 20 min, iv application; for concentration at 10 min / concentration at 20 min / concentration at 40 min / AUC(0-t) / Kp: male, SCID, mouse, in vivo, 5 mg/kg; for AUC(0-t) / Kp: iv. How it is done: Mouse Bolus Injection Assay
(In Vivo Assay for the Evaluation of Blood and Brain Levels of Epothilones)
Male SCID mice (20-25 g, non-leaky) were treated with a single dose of tritium-labeled Epothilones and paclitaxel (5 mg/kg; 7.4 MBq/mg; in 30% Hydroxypropyl-β-cyclodextrin (HPβCD)/NaCl iv bolus injection). Partitioning of radioactivity between blood and brain was measured by liquid scintillation counting (LSC) and HPLC-radioflow at three time points (10, 20 and 40 min) after injection.

Data set [2] has as its system Human U373 glioma cells. Nature of the data set: In vivo efficacy against xenografted (s.c.) and intracerebral human glioma. The following applies: for i. cer. Brain Tumor Volume d 32: i.cer. U373 in NMRI nu/nu-mice; for RTV s.c. Tumors d 25 (Relative Tumor Volume): s.c. U373 in NMRI nu/nu-mice. How it is done:
In vivo assay for the evaluation of efficacy of Epothilones against xenografted and intracerebral human glioma.
(§1) Female NMRI nu/nu-mice (20-28 g) were used for this experiment. Human U373 glioma cells were implanted s.c. (1×10^7/mouse) as well as i.cer. (2×10^5/mouse) on day 0. Treatment was started on day 7 when the s.c. tumors were approximately 0,05 cm^3 in size. […] After termination of the experiment, the size of the brain tumors was determined (Table 2).
On the technique in general: In xenograft studies the graft and the host belong to different species.

Data set [3] is described as follows: Tolerability (deaths, body weight change) in the U373 glioma study. The following applies: for BWC d 7-17 (Body Weight Change) / Deaths/total (d): NMRI nu/nu-mice. It is filed as in vivo, NMRI nu/nu-mice. How it is done: as §1
For data set [4] the following is noted: in vivo; cited from earlier work.
[5] abbreviates: 5 mg/kg iv bolus, 3H-labeled, male SCID mice.
[6] abbreviates: 10 min after 5 mg/kg iv bolus, 3H-labeled, male SCID mice.
Setting [7] is: 20 min after 5 mg/kg iv bolus, 3H-labeled, male SCID mice.
Setting [8] is: 40 min after 5 mg/kg iv bolus, 3H-labeled, male SCID mice.
Where [9] appears, read: Group B: 9 mg/kg i.v., days 7, 14.
[10] abbreviates: Group C: 2 mg/kg i.v., days 7, 9, 11, 14, 16, 18.
Setting [11] is: both schedules (groups B and C) vs. untreated control.

Usually AUC(0-t) stands for exposure summed from dosing to a finite time, without extrapolation to infinity. Low values mean low exposure, high ones high exposure. One may read the Kp as the ratio of the level in a tissue or fluid to that in plasma or blood. With `CCCC1C(=O)C(C)(C)C(O)CC(=O)OC(C(C)=Cc2csc(C)n2)CC=C(C)CCCC(C)C1O` (stereo not drawn) [Compound 1, 4,8-dihydroxy-16-(1-methyl-2-(2-methyl-4-thiazolyl)-ethenyl)-1-oxa-7-(1-propyl)-5,5,9,13-tetramethyl-cyclohexadec-13-ene-2,6-dione], in data set [1] (setting [5]), the “Brain AUC (0-40 min)” value stood at 21 µg·min/mL. Moreover, in data set [1], the Brain plasma ratio result is given as “higher brain plasma ratio”; the concentration at 10 min was 800 ng/mL and 300 ng/g; the concentration at 20 min is 600 ng/mL and 800 ng/g; the concentration at 40 min was 300 ng/mL and 600 ng/g. In data set [1], this compound had an area under the curve AUC(0-t) of 333 ng·h/mL and a partition ratio (Kp) of 1.
In the case of `CCCC1C(=O)C(C)(C)C(O)CC(=O)OC(C(C)=Cc2csc(C)n2)CC2OC2(C)CCCC(C)C1O` (stereo not drawn) [Compound 2], in data set [1] (setting [5]), the “Brain AUC (0-40 min)” value was 35 µg·min/mL and the “Plasma AUC (0-40 min)” value stood at 31 µg·min/mL. In data set [1] (setting [6]), this compound came in with a Brain conc. mean of 1.1 µg/g and a Plasma conc. mean of 1600 ng/mL. In data set [1] (setting [7]), this compound gave a Brain conc. mean of 1.1 µg/g and a Plasma conc. mean of 700 ng/mL. Further, in data set [1] (setting [8]), the Brain conc. mean amounted to 0.8 µg/g and the Plasma conc. mean was determined as 300 ng/mL. Further, the Brain plasma ratio result in data set [1] is given as “higher brain plasma ratio”. The “AUC Ratio Brain/Plasma” value in data set [1] (partial AUC 0-40 min, 5 mg/kg iv bolus, male SCID mice) is recorded as 1.2.
With `C=CCC1C(=O)C(C)(C)C(O)CC(=O)OC(c2ccc3sc(C)nc3c2)CC2OC2(C)CCCC(C)C1O` (stereo not drawn) [Compound 3, 7,11-dihydroxy-3-(2-methylbenzothiazol-5-yl)-10-(prop-2-en-1-yl)-8,8,12,16-tetramethyl-4,17-dioxabicyclo[14.1.0]heptadecane-5,9-dione], in data set [1] (setting [5]), the “Brain AUC (0-40 min)” value came to 20 µg·min/mL. Further, in data set [1], the concentration at 10 min was 1200 ng/mL and 900 ng/g; the concentration at 20 min was 700 ng/mL and 300 ng/g; the concentration at 40 min was 300 ng/mL and 600 ng/g; the AUC(0-t) is 417 ng·h/mL. In data set [1], this compound returned a Kp of 0.8. In data set [2] (setting [9]), the “i. cer. Brain Tumor Volume d 32” value is on record as 0.002* mm^3 and the “RTV s.c. Tumors d 25 (Relative Tumor Volume)” value was determined as 1.15. For the same compound, in data set [2] (setting [10]), the “i. cer. Brain Tumor Volume d 32” value was 0.96 mm^3 and the “RTV s.c. Tumors d 25 (Relative Tumor Volume)” value was found to be 1.40. In addition, in data set [2] (setting [11]), the “Therapeutic effect on i.cer. U373 brain tumors” value is recorded as “significant therapeutic effect” and the “Therapeutic effect on s.c. U373 tumors” value is reported as “significant therapeutic effect”. In addition, in data set [3] (setting [9]), the “BWC d 7-17 (Body Weight Change)” value is reported as −7% and the “Deaths/total (d)” value was 0/10. In data set [3] (setting [10]), the “BWC d 7-17 (Body Weight Change)” value was −3% and the “Deaths/total (d)” value is reported as 1/10. Besides, the Body weight loss entry in data set [3] (treatment groups B and C) is given as “Only a moderate body weight loss (not significant)”.
On to `CC(=O)O[C@H]1C(=O)[C@@]2(C)[C@H]([C@H](OC(=O)c3ccccc3)[C@]3(O)C[C@H](OC(=O)[C@H](O)[C@@H](NC(=O)c4ccccc4)c4ccccc4)C(C)=C1C3(C)C)[C@]1(OC(C)=O)CO[C@@H]1C[C@@H]2O` [Paclitaxel, reference compound], for which the “Brain AUC (0-40 min)” value in data set [1] (setting [5]) was found to be 0 µg·min/mL. The Brain conc. mean result in data set [1] (setting [6]) is reported as “<LOQ”. Moreover, in data set [1] (setting [7]), the Brain conc. mean result is listed as “<LOQ”. Also, the Brain conc. mean result in data set [1] (setting [8]) was “<LOQ”. In addition, the “Detection in the brain” value in data set [1] (40 minutes after application) is listed as “detected in the brain in considerable amounts”. Further, in data set [1] (all brain samples (10, 20, 40 min)), the “Concentration in brain samples” value was “below the limit of quantitation”. In data set [1], this compound had a concentration at 10 min of 800 ng/mL, a concentration at 20 min of 600 ng/mL, a concentration at 40 min of 200 ng/mL and an AUC(0-t) of 317 ng·h/mL. For the same compound, the “Ability to penetrate the BBB” value in data set [4] is “only low ability to penetrate the BBB”.
